pEC50: −log10 of the molar value.
Tests used:
[1] = test system: Sclerotinia sclerotiorum; test: Antifungal activity against Sclerotinia sclerotiorum
[2] = test system: Rhizoctonia solani; test: Antifungal activity against Rhizoctonia solani
[3] = test system: Botrytis cinerea; test: Antifungal activity against Botrytis cinerea at 150 uM; assay type: functional
[4] = test system: Phytophthora capsici; test: Antifungal activity against Phytophthora capsici at 150 uM; assay type: functional
[5] = test system: Fusarium graminearum; test: Antifungal activity against Fusarium graminearum at 150 uM; assay type: functional
[6] = test system: Rhizoctonia solani; test: Antifungal activity against Rhizoctonia solani at 150 uM; assay type: functional
[7] = test system: Sclerotinia sclerotiorum; test: Antifungal activity against Sclerotinia sclerotiorum at 150 uM; assay type: functional

Structure (SMILES) | pEC50 [1] | pEC50 [2] | Activity [3] | Activity [4] | Activity [5] | Activity [6] | Activity [7]
CC1(C)CCC[C@]2(C)[C@H]3Cc4cc(O)ccc4O[C@]3(C)CC[C@@H]12 | 4.54 | 4.80 | – | – | – | – | –
Cc1cc(O)cc2c1[C@]1(C)CC[C@H]3C(C)(C)CCC[C@]3(C)[C@H]1C2 | – | – | 7% | 5% | 11% | 16% | 11%
CC1(C)CCC[C@]2(C)[C@H]3Cc4cc(O)cc(O)c4[C@]3(C)CC[C@@H]12 | – | – | 39% | 65% | 60% | 68% | 43%
CC1(C)CCC[C@]2(C)[C@H]3Cc4cc(O)ccc4[C@]3(C)CC[C@@H]12 | < 3.82 | 4.47 | 34% | 33% | 37% | 62% | 51%
CC1(C)CCC[C@]2(C)[C@H]3Cc4c(ccc(O)c4O)[C@]3(C)CC[C@@H]12 | – | – | 43% | 60% | 71% | 62% | 63%
CC1(C)CCC[C@]2(C)[C@H]3Cc4c(O)c(O)cc(C(=O)O)c4[C@]3(C)CC[C@@H]12 | 4.59 | 4.74 | 56% | 55% | 51% | 73% | 76%
CCc1cc(O)c(O)c2c1[C@]1(C)CC[C@H]3C(C)(C)CCC[C@]3(C)[C@H]1C2 | – | – | 37% | 32% | 53% | 41% | 37%
Cc1cc2c(cc1O)C[C@@H]1[C@@]3(C)CCCC(C)(C)[C@@H]3CC[C@@]21C | – | – | 24% | 9% | 32% | 58% | 31%
CC1(C)CCC[C@]2(C)[C@H]3Cc4c(O)c(O)cc(C=O)c4[C@]3(C)CC[C@@H]12 | – | – | 33% | 29% | 55% | 43% | 28%
Cc1cc(O)c(O)c2c1[C@]1(C)CC[C@H]3C(C)(C)CCC[C@]3(C)[C@H]1C2 | – | – | 70% | 59% | 42% | 50% | 49%
CC1(C)CCC[C@]2(C)[C@H]3Cc4c(cc(C=O)c(O)c4O)[C@]3(C)CC[C@@H]12 | – | – | 15% | 3% | 37% | 3% | 34%
C[C@H]1CC[C@H]2C(C)(C)CCC[C@]23Oc2ccc(O)cc2C[C@]13C [AUREOL] | 4.72 | 5.16 | – | – | – | – | –
COC(=O)c1cc(O)c(O)c2c1[C@]1(C)CC[C@H]3C(C)(C)CCC[C@]3(C)[C@H]1C2 [PELOROL] | 4.31 | 5.11 | 52% | 40% | 62% | 87% | 75%

— ChEMBL document CHEMBL5385952, “Facile Synthesis and First Antifungal Exploration of Tetracyclic Meroterpenoids: (+)-Aureol, (-)-Pelorol, and Its Analogs” (J Nat Prod, 2024)
